Laboratory results taken from patent publication US6605639B1, “Ligands of nuclear receptor” (Nuclear Receptor Research, Ltd., priority 1998, dated 2003).

Legend:
[1] = tested on: rats given streptozotocin; test: Relief of onset of streptozotocin-induced diabetes; type: in vivo, rat; settings: male SD rats, streptozotocin 50 mg/kg i.v.; 10 mg/kg/day oral, 14 days from 24 hours after; Mean ± SE
Description: Eighteen male Wistar rats weighing about 200 g were divided into 3 groups at random. To the animals of 2 groups, 45 mg/kg of streptozotocin was intravenously administered. One of these groups was regarded as a control group, while the other was regarded as the Compound-6 administration group. To the remaining 1 group which was regarded as the normal control group, a 1/10 M citrate buffer (pH 3.5) […] was intravenously administered. Immediately after the administration of streptozotocin, a suspension of Compound-6 in acacia was orally administered once a day continuously for 10 days in a dose of 20 mg/kg/day. To other groups, an acacia solution alone was administered. After fasting for 6 hours after the final administration, blood was collected from the heart of each animal and the blood glucose level and the blood insulin level were measured. As the data given in Table 7a show, the oral administration of Compound-6 inhibited an increase in the blood glucose level and a decrease in the blood insulin level.
Eighteen male SD rats weighing about 250 g were divided into 3 groups at random. […] To the normal control group and the streptozotocin control group, the acacia solution alone was administered orally. After fasting for 6 hours after the final administration, blood was collected from the heart of each animal and the blood glucose level and the blood insulin level were measured. As the data given in Table 7b show, the oral administration of Compound-5 inhibited an increase in the blood glucose level and a decrease in the blood insulin level.

male ICR and ddY mice = test: Serum total cholesterol lowering effect in mice; type: in vivo, mouse; settings: 8 days; for Serum total cholesterol, % change: vs control; for Serum total cholesterol: Mean±SE
Description: Effect of serum cholesterol lowering agents varies among animals. Namely, some agents which are effective on a certain animal exert […] on others. For example, compactin, which is an HMG CoA reductase inhibitor, cannot lower the serum total cholesterol level when administered to rodents such as rat or mouse. This is because even though HMG CoA reductase is inhibited in the rodent liver, the enzyme is biosynthesized in an amount in excess of that for compensating the inhibition so that the inhibitory effect is negated. Accordingly, it is favorable to calibrate the effect of lowering serum total cholesterol level in as many animals as possible. Concerning the effect of the compounds of the present invention on the serum total cholesterol level, an assay was made with the use of mice. After adding these compounds to a standard powdery feed for rat and mouse, the resultant mixtures were molded into pellets and given for 8 days to male ICR and ddY mice aged 5 weeks. In the afternoon of the day 8, the blood of each animal was collected from the heart and the total cholesterol in the serum was determined. The doses were determined as the maximum dose, in which body weight gain was not suppressed after orally administering for 1 week, and as the ¼ dose thereof.
Each value is represented in Mean±SE (n=10). a) In the case of Compound-1, the control group consisted of 23 animals while the 0.04% and 0.01% groups each consisted of 12 animals.

male Wistar rats = test: Oral administration of Compound-5 to rats: toxicity and Compound-1 in the blood
Description: Male Wistar rats (n=4) weighing about 200 g were employed and the concentration of Compound-1 contained in the serum was expressed in mean±SE (FIG. 9).
In FIG. 9, open circles show a case wherein Compound-5 was solubilized with HCO-60 and orally administered in a dose of 2 mg/kg.
Solid circles show a case wherein Compound-5 was suspended in an acacia solution and orally administered in a dose of 20 mg/kg. Per part of the serum collected with the passage of time, ethanol containing 1% of acetic acid was added and the mixture was allowed to stand in the dark at room temperature for 7 days. Then Compound-1 was determined by high performance liquid chromatography.
Open squares show a case wherein Compound-5 was suspended in an acacia solution and orally administered. Then the blood was collected at definite points and Compound-1 was determined by high performance liquid chromatography immediately thereafter. […] Separately, Compound-5 suspended in an acacia solution was orally administered to rats having been cannulated into the portal vein. Then the portal blood was collected with the passage of time and Compound-1 was determined.

[2] = tested on: hereditary obese diabetic mice ob/ob and db/db; settings: oral; cited from earlier work
patients = settings: at the normal dose; cited from earlier work

CC(=O)Oc1c(Cl)c(C)c(C=O)c(O)c1CC=C(C)C=CC1(C)C(C)CCC(=O)C1C (stereo not drawn) [Compound-5, acetylASC]
Blood glucose [1]: 237.2 ± 26.31 mg/dL | Serum IRI [1]: 15.5 ± 2.16 mU/ml | Serum total cholesterol, % change (male ICR and ddY mice; 0.01% in feed): −13% | Serum total cholesterol (male ICR and ddY mice; 0.01% in feed): 132 ± 6.1 mg/dL | Serum total cholesterol, % change (male ICR and ddY mice; 0.04% in feed): −27% | Serum total cholesterol (male ICR and ddY mice; 0.04% in feed): 117 ± 3.3 mg/dL | time within which all of the rats died following administration (male Wistar rats; 2 mg/kg oral, solubilized with HCO-60, n=4): ≤ 1 h | lethality (male Wistar rats; rat, suspended in a 2% acacia solution, 200 mg/kg): not killed | free Compound-1 in the blood after administration of Compound-5 (male Wistar rats; suspended in acacia solution, oral, determined immediately by HPLC): no free Compound-1 was detected

Cc1cc2c(cc1C1(c3ccc(C(=O)O)cn3)CC1)C(C)(C)CCC2(C)C [LG100268]
blood glucose levels, serum neutral fat levels and serum insulin levels [2]: drastically lower

C=C(c1ccc(C(=O)O)cc1)c1cc2c(cc1C)C(C)(C)CCC2(C)C [LGD1069]
blood glucose levels, serum neutral fat levels and serum insulin levels [2]: drastically lower

Cc1c(C)c2c(c(C)c1O)CCC(C)(COc1ccc(CC3SC(=O)NC3=O)cc1)O2 (stereo not drawn) [troglitazone]
patients with hepatopathy (patients): about 2%
